According to US9592224B2, “Substituted benzothiazoles and therapeutic uses thereof for the treatment of human diseases” (CONSEJO SUPERIOR DE INVESTIGACIONES CIENTÍFICAS, priority 2013, dated 2017):

Experiments:
[1] = target: T1, recombinant human enzyme CK-1δ (Homo sapiens, UniProt P48730); experiment: Enzyme inhibition assay, Luminometer Kinase-GLO method, CK-1δ; type: biochemical; settings: for IC50: casein substrate, 4 μM ATP, 60 minutes at 30° C., read-out: Inhibitory Concentration 50 (IC50) CK-1δ
T1 construct: purchased Millipore Iberica SAU
Description: (§1) Enzyme inhibition assays were performed using the Luminometer Kinase-GLO® method. Recombinant human enzyme CK-1δ was purchased from Millipore Iberica SAU and recombinant human enzyme CK-1ε was purchased from Invitrogen. The phosphorylation substration chosen was casein. The Luminescent Kinase Kit (catalogue no. V6711) was obtained from Promega. ATP and other reagents were purchased from Sigma-Aldrich (St. Louis, Mo.).
(§2) The assays were conducted in buffer using 96-well plates. In a typical assay: 10 μL of the test compound (dissolved in dimethylsulfoxide at a concentration of 1 mM and, in turn, dissolved in buffer to the required concentration for the experiment) and 10 μL (16 ng) of the CK-1δ enzyme or 10 μL (50 ng) of the CK-1ε enzyme row were added to each well followed by 20 μL of buffer containing 0.1% casein as substrate and 4 μM of ATP. The assay buffer contained: 50 mM HEPES, pH 7.5; 0.01% Brij-35; 10 mM MgCl2; 1 mM EGTA and 0.01% NaN3. […] After incubating for 60 minutes at 30° C., the enzymatic reaction was stopped using 40 μL of Kinase-GLO® reagent. Luminescence was measured after ten minutes using a FLUOstar Optima (BMG Labtechnologies GmbH, Offenburg, Germany) multimode reader. The activity was proportional to the difference between the total and consumed ATP. Inhibition activities were calculated in accordance with the maximum activity measured in the absence of inhibitor. IC50 is defined as the concentration of each compound that reduces enzyme activity by 50% with respect to that obtained without inhibitor.

[2] = target: T2, recombinant human enzyme CK-1ε (Homo sapiens, UniProt P49674); experiment: Enzyme inhibition assay, Luminometer Kinase-GLO method, CK-1ε; type: biochemical; settings: for IC50: casein substrate, 4 μM ATP, 60 minutes at 30° C., read-out: Inhibitory Concentration 50 (IC50) CK-1ε
T2 construct: purchased Invitrogen
Description: as §1, §2

T2 sequence (P49674 whole entry): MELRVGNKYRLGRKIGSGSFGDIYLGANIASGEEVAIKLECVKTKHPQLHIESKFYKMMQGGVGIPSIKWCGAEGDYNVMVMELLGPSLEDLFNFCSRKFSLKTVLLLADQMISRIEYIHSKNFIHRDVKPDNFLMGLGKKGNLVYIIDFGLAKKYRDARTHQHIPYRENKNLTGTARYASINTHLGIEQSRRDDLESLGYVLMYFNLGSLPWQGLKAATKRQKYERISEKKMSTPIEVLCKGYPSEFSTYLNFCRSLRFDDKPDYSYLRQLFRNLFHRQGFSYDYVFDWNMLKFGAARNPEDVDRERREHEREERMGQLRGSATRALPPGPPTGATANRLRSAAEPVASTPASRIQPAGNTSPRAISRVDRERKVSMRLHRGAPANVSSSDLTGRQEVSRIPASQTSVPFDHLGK
T1 sequence (P48730 whole entry): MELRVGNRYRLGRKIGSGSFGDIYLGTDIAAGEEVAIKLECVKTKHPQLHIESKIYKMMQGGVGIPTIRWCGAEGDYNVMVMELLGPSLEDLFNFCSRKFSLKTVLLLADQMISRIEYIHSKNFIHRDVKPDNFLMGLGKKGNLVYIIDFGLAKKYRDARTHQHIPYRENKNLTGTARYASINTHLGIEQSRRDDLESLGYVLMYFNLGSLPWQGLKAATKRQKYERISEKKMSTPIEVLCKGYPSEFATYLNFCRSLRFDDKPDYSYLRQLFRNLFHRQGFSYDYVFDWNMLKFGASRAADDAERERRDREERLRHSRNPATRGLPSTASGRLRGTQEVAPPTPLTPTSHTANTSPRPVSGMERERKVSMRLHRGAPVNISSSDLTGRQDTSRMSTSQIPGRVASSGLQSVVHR

In the case of `COc1ccc(CC(=O)Nc2nc3ccc(Cl)cc3s2)cc1` [Compound 2, N-(6-chlorobenzothiazole-2-yl)-2-(4-methoxyphenyl)acetamide], the IC50 [1] is reported as 70 nM and the IC50 [2] is reported as 500 nM.

`O=C(Cc1ccccc1Cl)Nc1nc2ccc(C(F)(F)F)cc2s1` [Compound 7, N-(6-trifluoromethylbenzothiazole-2-yl)-2-(2-chlorophenyl)acetamide] was tested, and the IC50 [1] was 68 nM and the IC50 [2] was 7730 nM.

For `O=C(Cc1ccc(Cl)c(Cl)c1)Nc1nc2ccc(C(F)(F)F)cc2s1` [Compound 9, N-(6-trifluoromethylbenzothiazole-2-yl)-2-(3,4-dichlorophenyl)acetamide], the IC50 [1] was 56 nM and the IC50 [2] was 870 nM.

With `COc1cc(CC(=O)Nc2nc3ccc(OC(F)(F)F)cc3s2)cc(OC)c1OC` [Compound 11, N-(6-trifluoromethoxybenzothiazole-2-yl)-2-(3,4,5-trimethoxyphenyl)acetamide] the IC50 [1] was 79 nM and the IC50 [2] was 940 nM.

`O=C(Cc1cccc(C(F)(F)F)c1)Nc1nc2ccc(C(F)(F)F)cc2s1` [Compound 13, N-(6-trifluoromethylbenzothiazole-2-yl)-2-(3-(trifluoromethyl)phenyl)acetamide] showed an IC50 [1] of 87 nM and an IC50 [2] of 720 nM.

Work on `O=C(Nc1nc2ccc(C(F)(F)F)cc2s1)C(c1ccccc1)c1ccccc1` [Compound 15, N-(6-trifluoromethylbenzothiazole-2-yl)-2,2-diphenylacetamide] yielded an IC50 [1] of 260 nM and an IC50 [2] of 2750 nM.

`COc1ccc2nc(NC(=O)C(c3ccccc3)c3ccccc3)sc2c1` [Compound 16, N-(6-methoxybenzothiazole-2-yl)-2,2-diphenylacetamide] was tested, and the IC50 [1] was 840 nM and the IC50 [2] was 5070 nM.

With `O=C(CCc1ccccc1)Nc1nc2ccc([N+](=O)[O-])cc2s1` [Compound 17, N-(6-nitrobenzothiazole-2-yl)-3-phenylpropanamide] the IC50 [1] was 570 nM and the IC50 [2] was 9400 nM.

In the case of `O=C(Cc1ccc(F)cc1)Nc1nc2ccccc2s1` [Compound 18, N-(benzothiazole-2-yl)-2-(4-fluorophenyl)acetamide], the IC50 [1] is reported as 530 nM and the IC50 [2] is reported as 3080 nM.

Compound `COc1ccc(CC(=O)Nc2nc3ccc(OC)cc3s2)cc1` [Compound 19, N-(6-methoxybenzothiazole-2-yl)-2-(4-methoxyphenyl)acetamide] has an IC50 [1] of 570 nM and an IC50 [2] of 2410 nM.

For `COc1ccc2nc(NC(=O)Cc3ccc(Cl)cc3)sc2c1` [Compound 21, N-(6-methoxybenzothiazole-2-yl)-2-(4-chlorophenyl)acetamide], the IC50 [1] was 750 nM and the IC50 [2] was 8750 nM.

Compound `COc1ccc2nc(NC(=O)Cc3cccc(Cl)c3)sc2c1` [Compound 22, N-(6-methoxybenzothiazole-2-yl)-2-(3-chlorophenyl)acetamide] has an IC50 [1] of 530 nM and an IC50 [2] of 3730 nM.

`O=C(Cc1cccc(Cl)c1)Nc1nc2ccc(OC(F)(F)F)cc2s1` [Compound 23, N-(6-trifluoromethoxybenzothiazole-2-yl)-2-(3-chlorophenyl)acetamide] gave an IC50 [1] of 540 nM and an IC50 [2] of 1020 nM.

Work on `O=C(Nc1cccc(Cl)c1)Nc1nc2ccc(C(F)(F)F)cc2s1` [Compound 24, N-(6-trifluoromethylbenzothiazole-2-yl)-N′-(3-chlorophenyl)urea] yielded an IC50 [1] of 740 nM and an IC50 [2] of 11000 nM.

`COc1cccc(CC(=O)Nc2nc3ccc(OC)cc3s2)c1` [Compound 25, N-(6-methoxybenzothiazole-2-yl)-2-(3-methoxyphenyl)acetamide] showed an IC50 [1] of 420 nM and an IC50 [2] of 2430 nM.

`CCOc1ccc2nc(NC(=O)Cc3cccc(OC)c3)sc2c1` [Compound 26, N-(6-ethoxybenzothiazole-2-yl)-2-(3-methoxyphenyl)acetamide] showed an IC50 [1] of 990 nM and an IC50 [2] of 8970 nM.

In the case of `COc1ccccc1CC(=O)Nc1nc2ccc(OC(F)(F)F)cc2s1` [Compound 27, N-(6-trifluoromethoxybenzothiazole-2-yl)-2-(2-methoxyphenyl)acetamide], the IC50 [1] is reported as 620 nM and the IC50 [2] is reported as 7390 nM.

With `O=C(Cc1ccc(Cl)c(Cl)c1)Nc1nc2ccc(OC(F)(F)F)cc2s1` [Compound 28, N-(6-trifluoromethoxybenzothiazole-2-yl)-2-(3,4-dichlorophenyl)acetamide] the IC50 [1] was 590 nM and the IC50 [2] was 930 nM.

Work on `COc1ccc(OC)c(CC(=O)Nc2nc3ccc(C(F)(F)F)cc3s2)c1` [Compound 29, N-(6-trifluoromethylbenzothiazole-2-yl)-2-(2,5-dimethoxyphenyl)acetamide] yielded an IC50 [1] of 190 nM and an IC50 [2] of 3140 nM.

Work on `COc1ccccc1CC(=O)Nc1nc2ccc(Cl)cc2s1` [Compound 31, N-(6-chlorobenzothiazole-2-yl)-2-(2-methoxyphenyl)acetamide] yielded an IC50 [1] of 320 nM and an IC50 [2] of 1150 nM.

`COc1ccccc1CC(=O)Nc1nc2ccc(Br)cc2s1` [Compound 32, N-(6-bromobenzothiazole-2-yl)-2-(2-methoxyphenyl)acetamide] gave an IC50 [1] of 260 nM and an IC50 [2] of 1030 nM.

`O=C(Nc1nc2ccccc2s1)C(c1ccccc1)c1ccccc1` [Compound 33, N-(benzothiazole-2-yl)-2,2-diphenylacetamide] showed an IC50 [1] of 1960 nM and an IC50 [2] of 7310 nM.

`O=C(CC(c1ccccc1)c1ccccc1)Nc1nc2ccccc2s1` [Compound 34, N-(benzothiazole-2-yl)-3,3-diphenylpropanamide] gave an IC50 [1] of 2500 nM and an IC50 [2] of 9730 nM.

For `O=C(COCc1ccccc1)Nc1nc2ccccc2s1` [Compound 35, N-(benzothiazole-2-yl)-2-benzyloxyacetamide], the IC50 [1] was 4370 nM and the inhibition at 10 µM [2] was 48%.

In the case of `O=C(CNC(=O)c1ccccc1)Nc1nc2ccccc2s1` [Compound 36, N-[2-(benzothiazole-2-ylamine)-2-oxoethyl]benzamide], the IC50 [1] is reported as 7290 nM and the inhibition at 10 µM [2] is reported as 48%.

`O=C(CNC(=O)C(c1ccccc1)c1ccccc1)Nc1nc2ccccc2s1` [Compound 37, N-(benzothiazole-2-yl)-2-(2,2-diphenylacetamide)acetamide] gave an IC50 [1] of 1930 nM and an IC50 [2] of 13000 nM.

Work on `O=C(Cc1ccccc1)NCC(=O)Nc1nc2ccccc2s1` [Compound 38, N-(benzothiazole-2-yl)-2-(2-phenylacetamide)acetamide] yielded an IC50 [1] of 6330 nM and an inhibition at 10 µM [2] of 37%.

`CCOc1ccc2nc(NC(=O)C(c3ccccc3)c3ccccc3)sc2c1` [Compound 39, N-(6-ethoxybenzothiazole-2-yl)-2,2-diphenylacetamide] was tested, and the IC50 [1] was 2820 nM and the IC50 [2] was 7860 nM.

In the case of `CCOC(=O)c1ccc2nc(NC(=O)C(c3ccccc3)c3ccccc3)sc2c1` [Compound 40, Carboxylate[2-(2,2-diphenylacetamide)benzothiazole-6-yl]ethyl], the IC50 [1] is reported as 6680 nM and the IC50 [2] is reported as 1600 nM.

Compound `NS(=O)(=O)c1ccc2nc(NC(=O)C(c3ccccc3)c3ccccc3)sc2c1` [Compound 41, N-(6-sulfamoylbenzothiazole-2-yl)-2,2-diphenylacetamide] has an inhibition at 10 µM [1] of 10% and an inhibition at 10 µM [2] of 10%.

In the case of `CCNS(=O)(=O)c1ccc2nc(NC(=O)C(c3ccccc3)c3ccccc3)sc2c1` [Compound 42, N-(6-(N-ethylsulfamoyl)benzothiazole-2-yl)-2,2-diphenylacetamide], the inhibition at 10 µM [1] is reported as 10% and the inhibition at 10 µM [2] is reported as 10%.

For `CCCCNS(=O)(=O)c1ccc2nc(NC(=O)C(c3ccccc3)c3ccccc3)sc2c1` [Compound 43, N-(6-(N-butylsulfamoyl)benzothiazole-2-yl)-2,2-diphenylacetamide], the inhibition at 10 µM [1] was 10% and the inhibition at 10 µM [2] was 10%.

For `CCN(CC)S(=O)(=O)c1ccc2nc(NC(=O)C(c3ccccc3)c3ccccc3)sc2c1` [Compound 44, N-(6-(N,N-diethylsulfamoyl)benzothiazole-2-yl)-2,2-diphenylacetamide], the IC50 [1] was 9830 nM and the IC50 [2] was 3470 nM.

In the case of `CCOc1ccc2nc(NC(=O)Cc3ccc(OC)cc3)sc2c1` [Compound 45, N-(6-ethoxybenzothiazole-2-yl)-2-(4-methoxyphenyl)acetamide], the IC50 [1] is reported as 1090 nM and the IC50 [2] is reported as 9490 nM.

Compound `COc1ccc(NC(=O)Nc2nc3ccc(C(F)(F)F)cc3s2)cc1` [Compound 46, N-(6-trifluoromethylbenzothiazole-2-yl)-N′-(4-methoxyphenyl)urea] has an IC50 [1] of 5500 nM and an inhibition at 10 µM [2] of 29%.

In the case of `O=C(CCc1cccc(Cl)c1)Nc1nc2ccccc2s1` [Compound 47, N-(benzothiazole-2-yl)-3-(3-chlorophenyl)propanamide], the IC50 [1] is reported as 3580 nM and the inhibition at 10 µM [2] is reported as 31%.

In the case of `CCOc1ccc2nc(NC(=O)Cc3cccc(Cl)c3)sc2c1` [Compound 48, N-(6-ethoxybenzothiazole-2-yl)-2-(3-chlorophenyl)acetamide], the IC50 [1] is reported as 1210 nM and the IC50 [2] is reported as 9750 nM.

For `COc1ccc2nc(NC(=O)Cc3ccccc3Cl)sc2c1` [Compound 49, N-(6-methoxybenzothiazole-2-yl)-2-(2-chlorophenyl)acetamide], the IC50 [1] was 9710 nM and the inhibition at 10 µM [2] was 30%.

Work on `CCOc1ccc2nc(NC(=O)Cc3ccccc3Cl)sc2c1` [Compound 50, N-(6-ethoxybenzothiazole-2-yl)-2-(2-chlorophenyl)acetamide] yielded an IC50 [1] of 17400 nM and an inhibition at 10 µM [2] of 20%.
